From PubChem BioAssay (NCI) come the findings set out here.

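Interpolation was linear, between the two tested concentrations surrounding the appropriate level; five concentrations were tested over 48 hours in 96-well plates. Abbreviation: GI50, concentration required for 50% inhibition of growth. The concentration for full growth arrest is given as TGI.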

Common to all, as to experiment: NCI tumour cell line growth inhibition, 48 h
Test [1] deals with NCI-H522 lung.
Test [2] concerns UACC-257 melanoma.
In test [3] the test system is A498 renal.
For test [4], the system named is SK-MEL-5 melanoma.
For test [5], the system named is SK-MEL-2 melanoma.
Test [6] concerns CCRF-CEM leukemia.
The subject of test [7] is TK-10 renal.
The subject of test [8] is SF-539 CNS.
In test [9] the test system is SW-620 colon.
The subject of test [10] is HOP-92 NSCLC.

For the compound `CC[O-].CC[O-].O=C1c2ccccc2C(=O)c2c(O)ccc([O-])c21.O=C1c2ccccc2C(=O)c2c(O)ccc([O-])c21.[Ti+4]`, the TGI in test [1], in test [2], in [3], in test [4], in [5] and in test [6] was > 100 µM throughout. In addition, the TGI in test [7], in test [8] and in [9] was > 100 µM throughout.

With `CN(C)P(=O)(/C(N)=N/Nc1ccc([N+](=O)[O-])cc1)N(C)C`, the TGI in [1], in test [2], in test [4], in test [5], in [10] and in [6] was > 100 µM each time. Further, the TGI in [7], in test [8] and in test [9] was > 100 µM throughout.

For the compound `CC(=O)[CH-]C(=O)c1ccccc1.CC(=O)[CH-]C(=O)c1ccccc1.O=C([O-])c1ccc([O-])cc1.O=C([O-])c1ccc([O-])cc1.[Ti+4]`, the GI50 in test [1] was 22.8 µM; in [4], 43.9 µM; in test [5], 36.9 µM; in test [6] it was 15.4 µM; in test [8], 40.2 µM; in test [9], 43 µM. Moreover, the TGI in [1] is 70.9 µM; in [4] it was > 100 µM; in [5], > 100 µM; in test [6], 62.8 µM; in test [8], > 100 µM; in [9] it was > 100 µM.

Consider `COC(=O)C1=NC(=S)NC(c2ccccc2)C1c1nc2ccccc2s1` (stereo not drawn), for which the TGI in test [2], in [3], in [4], in test [5], in test [10] and in test [6] was > 100 µM throughout. Further, the TGI in [7], in test [8] and in [9] was > 100 µM each time.

Regarding `CCOC(=O)CN=c1nc(SC)sc2c(C(=O)OCC)nc(Sc3ccccc3)n12`, the TGI was 74.3 µM in [1]; > 100 µM in test [2]; > 100 µM in test [4]; > 100 µM in test [5]; > 100 µM in test [10]; > 100 µM in test [6]. Also, the TGI in test [7] and in [9] was > 100 µM throughout.

As for `CC12CCCC(O)C1CCC1=CC3(CCC12)SCCS3` (stereo not drawn), the TGI in test [1], in [2], in test [4], in test [10], in test [6] and in test [7] was > 10 µM in each case. The TGI in test [9] was > 10 µM.

Consider `Cn1cc(C(=O)c2ccccc2)ccc1=O`, for which the TGI in test [1], in [2], in test [4], in [5], in test [10] and in test [6] was > 100 µM each time. Moreover, the TGI in [7], in test [8] and in test [9] was > 100 µM in each case.

As to `CCOC(=O)c1cc(/C(=N\O)c2cc(OC)c(OC)c(OC)c2)n2cc(C)cc(C)c12`, the GI50 in test [3] is 1.99 µM; in [4], 2.19 µM; in test [10], 2.26 µM; in test [7], 3.66 µM; in test [9], 2.56 µM. Besides, the TGI in test [3] is 6.74 µM; in test [4], 5.79 µM; in [10], 7.08 µM; in test [7], 51.3 µM; in [9], > 100 µM.

On to `CC1=C2C(=O)O[C@@H](c3ccoc3)[C@]2(C)CCC1`, for which the TGI in test [1], in [2], in test [4], in [5], in [10] and in test [6] was > 100 µM throughout. Further, the TGI in [7], in test [8] and in test [9] was > 100 µM in each case.

With `Cc1ccccc1N(CCC#N)C1=NN(C(=O)CC(=O)Nc2ccccc2)C(c2ccccc2)C1` (stereo not drawn), the TGI in [1], in test [2], in [4], in test [5], in test [10] and in test [6] was > 100 µM in each case. The TGI in test [8] and in test [9] was > 100 µM each time.

Regarding `COc1cc(OC)c(/C=C/C(=O)c2c(OC)cccc2OC)c(OC)c1`, the TGI in test [2] was > 100 µM; in test [4], 2.49 µM; in test [5] it was > 100 µM; in test [6], > 100 µM; in [7], > 100 µM; in test [8], 4.41 µM. The TGI in test [9] is > 32.6 µM. For the same compound, the GI50 in test [3] is 0.308 µM; in [4], 0.348 µM; in [5] it was 0.807 µM; in test [10], 0.222 µM; in [6], 1.23 µM; in test [7], 5.03 µM. Besides, the GI50 in test [8] is 0.533 µM; in test [9], 0.375 µM.

Take `CC1=C(C)CC2(CCCCC2=O)S(=O)C1` (stereo not drawn): the TGI in [2], in test [3], in [4], in [5], in test [10] and in test [6] was > 100 µM each time. The TGI in test [7], in [8] and in test [9] was > 100 µM in each case.

`CC(=O)OC1=NN=C2COC(c3ccccc3OC(C)=O)=NN2C1`: the TGI in test [1] is > 50 µM; in test [2] it was > 50 µM; in [4], 18.1 µM; in test [5] it was > 50 µM; in [10], > 50 µM; in [6] it was > 50 µM. Further, the TGI in [7], in test [8] and in test [9] was > 50 µM in each case.
